Reference: US20240189263A1, “DERIVATIZED C60 MOLECULES AND METHODS AND MATERIALS FOR USING DERIVATIZED C60 MOLECULES TO REDUCE RADIATION INJURY” (Mayo Foundation for Medical Education and Research, priority 2021, published 2024)

Experiments:
[1] = system: HUVEC cells; assay: MTS cytotoxicity assay, HUVEC; format: cell-based; conditions: 1-1000 μM, 24, 48 or 72 hours
Procedure: (§1) Cytotoxicity of C60-ser was determined by an MTS (3-(4,5-dimethylthiazol-2-yl)-5-(3-carboxymethoxyphenyl)-2-(4-sulfophenyl)-2H-tetrazolim) colorimetric assay on four different cell lines, each representing a different cell type. Specifically, HepG2 (liver epithelium), HUVEC (endothelial cells), N2A (neuroblastoma cells representative of normal neurons), and NIH3T3 (fibroblasts) were analyzed. The cells were seed in a 96-well tissue culture polystyrene plate at different seeding concentrations based on the cell's doubling time. HUVEC cells were seeded at 10,000 cells/well (24 hour experiments), 8,000 cells/well (48 hour experiments), and 5,000 cells/well (72 hour experiments), and incubated for 24 hours in a humidified atmosphere with 5% C02 at 37° C. […] After incubation with MTS, the optical density (OD) of the resulting formazan solution was read at 490 nm using a microplate reader (Biotek Cytation 5 cell Imaging Multi-Mode reader, Winooski, VT). The cell viability was obtained by normalizing the absorbance of the sample with that of the control wells containing untreated cells. The cell viability was expressed as a percentage, assigning the viability of non-treated cells as 100%. […]

[2] = system: HepG2 cells; assay: Classic clonogenics survival assay of irradiated cells, HepG2; format: cell-based
Procedure: A classic clonogenics assay was performed to further test the ability of C60-ser to protect against radiation damage. After irradiation, a fraction of the cells will undergo radiation-induced death, whereas other cells remain metabolically active and are able to undergo a few cycles of mitosis before meeting their endpoint. Since many cells remain metabolically activity, classic toxicity measurements such as an MTT measurement are not able to catch the full effects of radiation damage. In contrast, a classic clonogenics assay, which plates a known number of cells and tracks development of colonies, is able to track the number of cells that maintain their clonogenicity. With increasing radiation doses, the fraction of cells that maintain clonogenicity decrease. Therefore, a successful radioprotectant is able to increase the number of surviving colonies compared to the control at the same radiation doses.
N2A, NIH3T3, and HepG2 cells were plated in 35 mm dishes and treated with 100 μM C60-ser for 2 hours prior to washing with PBS and irradiation at 0, 2, 4, and 6 Gy with a 230 MeV proton beam. Following radiation, a known number of cells were re-plated in six well plates and allowed to grow in culture for 8-14 days to allow for colony formation. To account for cell death with higher radiation doses, a larger number of cells were plated with increasing doses received. […]

[3] = system: HCT116 colorectal cancer cells; assay: Clonogenic assay of irradiated HCT116 colorectal cancer cells; format: cell-based; conditions: HCT116, 100 μM 2 hours, 0-6 Gy
Procedure: A clonogenic assay of HCT116 colorectal cancer cells was conducted. 2×10^6 cells were treated with 100 μM C60-ser for 2 hours and exposed to 0-6 Gy of radiation.

[4] = system: N2A cells; assay: MTS cytotoxicity assay, N2A; format: cell-based; conditions: 1-1000 μM, 24, 48 or 72 hours
Procedure: as §1

[5] = system: Panc02 tumor on the thigh of C57B16 mice; assay: Syngeneic mouse model of pancreatic cancer, tumor volume under radiation; format: in vivo; conditions: 700 mg/kg per os once 12 hours before first radiation, with capecitabine 350 mg/kg 5 days, 2 Gy x 5 days, 20 days
Procedure: A syngeneic mouse model of pancreatic cancer (Panc02 growing on the thigh of C57B16 mice) was used to evaluate the effects of C60-ser on in vivo tumors. Mice were treated with 350 mg/kg capecitabine via per os gavage for 5 days 1 hour before radiation (RT+Cape), or capecitabine treatment with a single dose of 700 mg/kg C60-ser via per os gavage once 12 hours before the first dose of radiation (RT+Cape+c60 Ser). Mice were exposed to 2 Gy of radiation (RT) once per day for 5 days. A control group (Cont) without treatment also was exposure to the radiation treatment. Normalized tumor volumes were monitored for 20 days.

[6] = system: N2A cells; assay: ROS by H2-DCFDA probe after proton irradiation, N2A; format: cell-based; conditions: pretreated 100 μM, TBHP 200 μM, 1 Gy proton, read 30 minutes post radiation
Description: Cell lines were irradiated using pencil beam scanning (PBS) proton beams produced by IBA ProteusOne (Ion Beam Applications, Louvain-la-Neuve, Belgium). Single layer mono-energy 227 MeV pencil beams with uniform spacing of 0.25 cm between each spot were used to create a large field size with uniform dose distribution (±2%) that encompassed all sample wells containing the cells. A fixed source to surface distance (SSD) setup and gantry at 180 degrees was used to delivery 0.5, 1, 2, 4, and 6 Gray (Gy) dose of ionizing radiation to cells. The cells were place at an 8 cm depth, with a linear energy transfer (LET) of approximately 1.7 keV/μm, using solid water slabs as a buildup. […] The monitor units needed to deliver the intended dose were calculated using the measure dose/MU values.
Post radiation, 2′,7′-dichlorodihydrofluorescein diacetate (H2-DCFDA) probes were used to measure the level of reactive oxygen species (ROS) post-proton radiation (1 Gy, 230 MeV proton beam). […] A fluorescence microplate reader (SpectraMax M5, Molecular Devices Corporation, California, USA) was used to detect the generation of fluorescent DCF molecules with an excitation filter of 485 nm and an emission filter of 525 nm, with a 515 nm cutoff filter. […] Following irradiation, the cells were transported back for plate reading, 30 minutes post radiation.

SMILES: O=C(NC(CO)CO)C1(C(=O)NC(CO)CO)C23c4c5c6c7c8c4-c4c2c2c9c%10c4C4%11c%12c-%10c%10c%13c%14c%12-c%12c(c-7c7c%15c%12C%14%12C(C(=O)NC(CO)CO)(C(=O)NC(CO)CO)C%12%14c%12c%16c%17c%18c(c%12-%15)C7%12C(C(=O)NC(CO)CO)(C(=O)NC(CO)CO)C6%12c6c-5c5c7c(c6-%18)C%176C(C(=O)NC(CO)CO)(C(=O)NC(CO)CO)C6%12c6c-7c(c-2c2c6-c6c%12c-%16c%14c-%13c6C%106C(C(=O)NC(CO)CO)(C(=O)NC(CO)CO)C926)C513)C84C%11(C(=O)NC(CO)CO)C(=O)NC(CO)CO (stereo not shown) [C60-ser, C60-serinol]
- percent viability [1]: did not result in a significant decrease in viability
- fraction of surviving cells ([2]; HepG2, 100 μM 2 hours before irradiation): increased the fraction of surviving cells
- dose enhancement factor (DEF) at 20% surviving fraction ([2]; HepG2, 100 μM 2 hours, 0-6 Gy 230 MeV proton): 0.88±0.01
- surviving fraction of cells vs control [3]: no difference in the surviving fraction of cells
- percent viability [4]: did not result in a significant decrease in viability
- normalized tumor volume vs capecitabine alone [5]: not significantly different in normalized tumor volume
- ROS (H2-DCFDA fluorescence) [6]: significant reduction in ROS
